# Assay results published in patent publication US20130109616A1, “ANTIMICROBIAL PEPTIDES” (priority 2010, published 2013).
# Entries after “also recorded” stand apart in the source; their conditions may differ.
# What was measured:
# [1] = tested on: Burkholderia cepacia J2540; type: cell-based
# E. coli = experiment: Modified microtitre broth dilution, IC50/IC90; type: cell-based, Escherichia coli; set-up: unit not given here
# [2] = tested on: B. anthracis UM23-CI2 vegetative cells; type: cell-based, Bacillus anthracis
# [3] = tested on: B. anthracis UM23-CI2 spores; type: cell-based, Bacillus anthracis
# Vaccinia virus = type: cell-based
# [4] = tested on: subtilisin or V8 protease; experiment: Protease resistance: membrane-binding ELISA after protease pre-incubation; conditions: subtilisin and/or V8 protease, 30 minutes at room temperature, FIG. 1
# [5] = tested on: Candida albicans (SC5314); experiment: Serial dilution growth/killing assay; type: cell-based; conditions: serial dilutions, 14 hours at 30° C., FIG. 6; peptides C-terminally amidated
# [6] = tested on: Staphylococcus aureus (NC131142); experiment: Serial dilution growth/killing assay; type: cell-based; conditions: peptides C-terminally amidated
# [7] = tested on: Bacillus subtilis membranes; experiment: Membrane-binding ELISA; conditions: expressed peptide fused to 3×FLAG-10×His, no protease
substance,measurement,setting,value
FKRIVQRIKDFLRKLVPRIMS [Peptide H04],activity against B. cepacia at 24 hours,[1],no bacteria were detectable; also recorded: effective killing activity over the entire duration of the 24-hour testing period
same,reduction of the starting culture of B. cepacia,[1],99.9%
same,IC50,E. coli,7.8-15.6
same,IC90,E. coli,15.6-31.3
same,"change in cell number, exponential phase cells",[2],further reductions in cell number
same,"duration of antibacterial activity, vegetative cells",[2],still effective at the end of the 24-hour period
same,bactericidal activity against Bacillus anthracis spores (in words),[3],improved bactericidal activity
same,"duration of antibacterial activity, spores",[3],still effective at the end of the 24-hour period
same,anti-viral activity against Vaccinia virus compared with LL-37,Vaccinia virus,"greater anti-viral activity than the wild-type peptide, LL-37"
VKRIVQRIKVFLRNLMPRSKS [Peptide G11],effect on growth of B. cepacia,[1],prevent B. cepacia from growing
same,IC50,E. coli,31.3-62.5
same,IC90,E. coli,62.5-125
same,bactericidal activity against Bacillus anthracis spores (in words),[3],improved bactericidal activity
same,ELISA binding signal after protease treatment (proteolytic resistance),[4],increase signal strength
"LLGDFFRKSKEKIGKEFKRIVQRIKDFLRNLVPRTES [LL-37, reference compound]",effect on growth of B. cepacia,[1],no effect on the growth
same,IC50,E. coli,15.6-31.3
same,IC90,E. coli,15.6-31.3
same,activity against Bacillus anthracis vegetative cells (in words),[2],did not have activity
same,bactericidal activity against Bacillus anthracis spores (in words),[3],better activity than MA-22
same,"duration of antibacterial activity, spores",[3],activity was lost within the 24 hour period
LLGVFFRKRKAKIGKKFKRILQRIKDFRRNLVPRIKS [Peptide C11],effect on growth of B. cepacia,[1],prevent B. cepacia from growing
same,IC50,E. coli,15.6-31.3
same,IC90,E. coli,31.3-62.5
same,bactericidal activity against Bacillus anthracis spores (in words),[3],improved bactericidal activity
"FRRIVQRIKDFLRNLVMRRKN [Peptide F11, FRRIVQRIKDFLRNLV MRRKN]",activity against B. cepacia at 24 hours,[1],effective killing activity over the entire duration of the 24-hour testing period
same,reduction of the starting culture of B. cepacia,[1],~99%
same,IC50,E. coli,7.8-15.6
same,IC90,E. coli,7.8-15.6
same,"change in cell number, exponential phase cells",[2],further reductions in cell number
same,"duration of antibacterial activity, vegetative cells",[2],still effective at the end of the 24-hour period
same,bactericidal activity against Bacillus anthracis spores (in words),[3],improved bactericidal activity
same,"duration of antibacterial activity, spores",[3],still effective at the end of the 24-hour period
same,anti-viral activity against Vaccinia virus compared with LL-37,Vaccinia virus,"greater anti-viral activity than the wild-type peptide, LL-37"
same,killing of C. albicans compared with MAF-23 peptides,[5],killed C. albicans more effectively than the wild type peptides MAF23 and acetylated MAF23
same,"colonies recovered, S. aureus",[6]; 25 nM peptide,approximately 10^3 colonies/ml
same,killing of S. aureus compared with MAF-23 peptides,"[6]; serial dilutions, 14 hours at 30° C., FIG. 5",killed S. aureus more effectively than the MA23 or N-terminally acetylated MA23
wild-type full length LL-37 peptide fused to 3×FLAG-10×His [reference compound],binding to immobilised Bacillus subtilis membranes (ELISA signal),[7],significant binding
same,ELISA binding signal after protease treatment (proteolytic resistance),[4],abolished the signal
